Type in all cases: cell-based, human
One assay relates to hiPSC-EPSCs. Briefly: Colony formation assay (CFA) on 3T3 fibroblast feeders. As to conditions: small molecules added to expansion medium at passage 4; 2.5 μM CHIR99021, 1 μM DMH-1, 2.5 μM A-83-01; CFA at p7, 1K/well, 10 days. Here is the method:
FIGS. 2A-2D show characterization of hiPSC-EPSC in vitro. […] For CFA, different hiPSC-EPSC lines (EP61, EP112 and EP116) and control HF-KC were subcultured for 3 passages (p3) then plated on 3T3 fibroblast feeders at 1K/well and incubated for additional 10 days, then fixed and stained with Crystal violet. […] Hair follicle derived keratinocytes (HFKC) are used as reference cells. […] Ns: p>0.05; *: p<0.05; ** p<0.01; *** p<0.001; ****: p<0.0001. […] Note nuclear localization of 3-Cat, a hallmark of Wnt signaling activation in hiPSC-EPSC but not in HF-KC (arrows).
(§1) FIGS. 3A-3E show activation of Wnt signaling pathway via GSK3 inhibition enables long-term expansion of hiPSC-EPSC. […] The clonogenicity of hiPSC-EPSCs was diminishing as a result of serial passaging. […] For CFA, hiPSC-EPSCs were cultured for 7 weeks (p7) with or without small molecule inhibitors, then plated on 3T3 fibroblast feeders at 1K/well and incubated for additional 10 days, then fixed and stained with Crystal violet. The plates were scanned and analyzed using imaging software to determine the confluency. The confluency data from three experiments is summarized in the graph (right panel). […] The graph is showing the percentage of proliferating (Ki67+) hiPSC-EPSC over total nuclei (DAPI+). *: p<0.05. […] Data was analyzed using standard ddCt method and shown as mean±s.d. of the expression from three independent experiments. *: p<0.05; ****: p<0.01. […] Data are represented as a heatmap, where results from eight independent differentiation experiments were averaged and z-scores were calculated for each timepoint represented.
Despite EPSCs having substantial self-renewal capability in vivo, the prolonged expansion in vitro of EPSC isolated from various tissues has remained challenging. It is well documented that in conventional cultures, freshly isolated EPSCs rapidly lose their clonogenicity and stem cell marker expression signature. Inoue et al, Lab invest. 2009 August, 89(8):844-56; Ohyama et al., J Clin Invest. 2006 January, 116(1):249-60; Yang et al., Stem Cell Research & Therapy (2020) 11:303. […]

Assay [1] concerns Wnt pathway genes LEF1, TCF4, LGR6 in hiPSC-EPSC. Briefly: qPCR gene expression analysis of Wnt signaling pathway genes. As to conditions: ddCt, hiPSC-EPSC treated with CHIR-99021. Here is the method: as §1
Despite EPSCs having substantial self-renewal capability in vivo, the prolonged expansion in vitro of EPSC isolated from various tissues has remained challenging. It is well documented that in conventional cultures, freshly isolated EPSCs rapidly lose their clonogenicity and stem cell marker expression signature. Inoue et al, Lab invest. […]
(In general: Quantitative PCR measures a nucleic acid by following its amplification.)

The next assay deals with hiPSC-EPSC. Briefly: Ki67 immunofluorescent analysis of proliferating cells. As to conditions: hiPSC-EPSC treated with CHIR-99021 vs untreated cells. Here is the method: as §1
Immunocytochemistry: Cells were cultured and imaged in 96 well plates. Briefly, media was aspirated, and wells rinsed once with PBS for 2 minutes. Cells were fixed with 4% formaldehyde for 10 minutes at RT, followed by two washes with PBS. […]

The test system of another assay is passage 4 hiPSC-EPSCs. Kind of assay: Bulk RNA-seq of HF bulge EPSC marker expression. To be noted: CHIR-99021 vs DMSO. Here is the method:
FIGS. 3A-3E show activation of Wnt signaling pathway via GSK3 inhibition enables long-term expansion of hiPSC-EPSC. […] The clonogenicity of hiPSC-EPSCs was diminishing as a result of serial passaging. […] For CFA, hiPSC-EPSCs were cultured for 7 weeks (p7) with or without small molecule inhibitors, then plated on 3T3 fibroblast feeders at 1K/well and incubated for additional 10 days, then fixed and stained with Crystal violet. The plates were scanned and analyzed using imaging software to determine the confluency. The confluency data from three experiments is summarized in the graph (right panel). […] Data was analyzed using standard ddCt method and shown as mean±s.d. of the expression from three independent experiments. *: p<0.05; ****: p<0.01. […] Data are represented as a heatmap, where results from eight independent differentiation experiments were averaged and z-scores were calculated for each timepoint represented.
Bulk RNA-sequencing: RNA was extracted from each sample and quantified with Qubit. cDNA libraries were generated using the NEB library kit. All libraries were then quantified, pooled, and sequenced on Illumina platforms. Reads were first analyzed by fastQC and then trimmed for low-quality bases with Trimmomatic. Clean reads were then aligned to the human reference genome (GRCh38) with Ensembl gene annotation using STAR software. […]

Assay [2] has as its system HF organoids of hiPSC-EPSC with dermal papilla (DP) cells. Briefly: 3D hair follicle organoid assay (roundness/elongation score). As to conditions: 2.5 μM added to EPSC and organoid culture. Here is the method: FIGS. 4A-4D show in vitro functional analysis of hiPSC-EPSC in 3D tissue constructs. […] Bottom panel illustrates an organoid development process of using an example of an organoid created by combining fluorescently labeled (red) dermal papilla (DP) cells with HF-KCs. […] Measurement is obtained with CYTATION™ 5 software. Each color represents a different cell combination, and each dot represents a single organoid. The percentage of elongated organoids was increased when hiPSC-EPSC were treated with CHIR-99021. […] Neonatal foreskin-derived keratinocytes (HFK) were used as a control. […]
The stable hiPSC-EPSC with features of HF bulge EPSC described above were investigated as to whether they were receptive to specific mesenchymal stimuli and capable of creating complex multilayered tissues. […] To quantitively assess the organoids elongation and provide an indicator of hiPSC-EPSC functionality in vitro, an automated computational image-based analysis was employed that calculates the roundness of the generated 3D structures, assigning values between 1 and 0, where 1 represents a perfectly round object and 0 a long shaped one. By plotting time-lapse values of roundness score in a graph, the ability of iPSC-EPSC cells to generate elongated structure in combination with DP cells (FIG. 4C) was quantified. […]

Data on three compounds can be found in patent US20260265690A1, “Epithelial Stem Cells and Production and Uses thereof” (Stemson Therapeutics Corp., priority 2022, published 2026).

In the case of `CC(C)Oc1ccc(-c2cnc3c(-c4ccnc5ccccc45)cnn3c2)cc1` [DMH-1], the “clonogenicity of hiPSC-EPSCs” value in the assay on hiPSC-EPSCs is on record as “not BMP or TGF-β inhibitors, preserved clonogenicity”.
On to `Cc1c[nH]c(-c2cnc(NCCNc3ccc(C#N)cn3)nc2-c2ccc(Cl)cc2Cl)n1` [CHIR-99021, 6-((2-((4-(2,4-Dichlorophenyl)-5-(4-methyl-1H-imidazol-2-yl)pyrimidin-2-yl)amino)ethyl)amino)nicotinonitrile], for which the “expression of Wnt pathway genes including LEF1, TCF4, and LGR6” value in assay [1] is “upregulation”. Moreover, the “number of proliferating (Ki67+) cells” value in the assay on hiPSC-EPSC is given as “significantly higher number of proliferating cells”. Also, in the assay on passage 4 hiPSC-EPSCs, the “expression of HF bulge EPSC markers including KRT15, CD59, TP63, ITGA6, DKK3, SOX9, and NFATC1” value is reported as “increased the expression”. Besides, the “percentage of elongated organoids” value in assay [2] is reported as “increased”. Moreover, in the assay with hiPSC-EPSCs, the “clonogenicity of hiPSC-EPSCs” value is listed as “preserved clonogenicity”.
In the case of `Cc1cccc(-c2nn(C(=S)Nc3ccccc3)cc2-c2ccnc3ccccc23)n1` [A-83-01], in the assay on hiPSC-EPSCs, the “clonogenicity of hiPSC-EPSCs” value is recorded as “not BMP or TGF-β inhibitors, preserved clonogenicity”.
